From PubChem BioAssay (NCI)
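Compound exposure: 48 hours, 5 concentrations, 96-well plates. GI50 is the concentration that inhibits growth by half. At the TGI there is no net growth.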

Columns and labels:
Experiment in all cases: NCI anticancer screen, dose series, 48 h
ACHN renal = system: ACHN renal
BT-549 breast = system: BT-549 breast
HS 578T breast = system: HS 578T breast
MALME-3M melanoma = system: MALME-3M melanoma
MDA-MB-231 breast = system: MDA-MB-231 breast
MOLT-4 leukemia = system: MOLT-4 leukemia
SK-MEL-28 melanoma = system: SK-MEL-28 melanoma
SK-MEL-5 melanoma = system: SK-MEL-5 melanoma
SR leukemia = system: SR leukemia
TK-10 renal = system: TK-10 renal
UACC-257 melanoma = system: UACC-257 melanoma
RXF 393 renal = system: RXF 393 renal

SMILES	TGI (ACHN renal)	TGI (BT-549 breast)	TGI (HS 578T breast)	TGI (MALME-3M melanoma)	TGI (MDA-MB-231 breast)	TGI (MOLT-4 leukemia)	TGI (SK-MEL-28 melanoma)	TGI (SK-MEL-5 melanoma)	TGI (SR leukemia)	TGI (TK-10 renal)	TGI (UACC-257 melanoma)	GI50 (BT-549 breast)	GI50 (HS 578T breast)	GI50 (MDA-MB-231 breast)	GI50 (MOLT-4 leukemia)	GI50 (RXF 393 renal)	TGI (RXF 393 renal)	GI50 (SK-MEL-5 melanoma)	GI50 (ACHN renal)	GI50 (MALME-3M melanoma)
CCCCCCCNC(P(=O)(O)O)P(=O)(O)O	> 100 µM	> 100 µM	97.5 µM	> 100 µM	> 100 µM	> 100 µM	> 100 µM	> 100 µM	> 100 µM	> 100 µM	> 100 µM	–	–	–	–	–	–	–	–	–
Fc1ccc(-c2nn3c(-c4cc(C(F)(F)F)cc(C(F)(F)F)c4)nnc3s2)cc1	–	> 50 µM	> 50 µM	–	> 50 µM	> 50 µM	–	> 50 µM	–	–	–	> 50 µM	1760 nM	1790 nM	> 50 µM	1780 nM	> 50 µM	4.42 µM	–	–
C=C1C(=O)O[C@@H]2[C@H]1CCC(C)=C1C=CC(=O)[C@]12C	30 µM	–	–	–	–	39.4 µM	23.4 µM	27.5 µM	43 µM	38 µM	27.1 µM	–	–	–	–	–	29.8 µM	–	–	–
COC1=CC(=O)c2c(cc(COP(=O)(OCC3OC(n4cc(F)c(=O)[nH]c4=O)CC3O)N(C)CCCCCl)n2C)C1=O (stereo unspecified)	> 100 µM	> 100 µM	2.64 µM	9.97 µM	35.8 µM	> 54 µM	> 68.8 µM	1.34 µM	> 92.7 µM	> 100 µM	> 47.5 µM	–	–	–	–	–	4.71 µM	–	–	–
O=C(O)C1CCC(=O)N1S(=O)(=O)c1ccccc1 (stereo unspecified)	–	–	–	> 100 µM	–	> 100 µM	> 100 µM	> 100 µM	–	–	> 100 µM	–	–	–	–	–	> 100 µM	–	–	–
CO/C(=C/C(=O)C(Cl)(Cl)Cl)CC/C(=C\C(=O)C(Cl)(Cl)Cl)OC	65.2 µM	83.2 µM	> 100 µM	66.4 µM	> 100 µM	> 100 µM	80.5 µM	> 100 µM	51.7 µM	73.2 µM	43.8 µM	–	–	–	–	–	34.7 µM	–	–	–
O=C(Nc1c(C(=O)NC2CCCCC2)[nH]c(=O)[nH]c1=O)c1ccc(Cl)cc1	> 100 µM	–	–	> 100 µM	–	> 100 µM	> 100 µM	> 100 µM	> 100 µM	> 100 µM	–	–	–	–	–	–	> 100 µM	–	–	–
c1ccc(N=c2nc(N3CCOCC3)ss2)cc1	30.9 µM	–	–	28.8 µM	–	37.1 µM	32.1 µM	> 100 µM	58.3 µM	> 100 µM	29.8 µM	–	–	–	–	–	31.3 µM	–	–	–
NC1(C(=O)O)CCc2ccc(N(CCCl)CCCl)cc2C1 (stereo unspecified)	–	–	–	2.2 µM	–	87 µM	> 100 µM	> 100 µM	–	–	> 100 µM	–	–	–	–	–	> 100 µM	–	–	–
CC(=O)OCC1=C(C(=O)O)C(c2ccc3c(c2)OCO3)c2cc3c(cc2O1)OCO3 (stereo unspecified)	> 100 µM	–	–	> 100 µM	–	> 100 µM	> 100 µM	> 100 µM	–	> 100 µM	> 100 µM	–	–	–	–	–	> 100 µM	–	–	–
Cc1cc(C)c2c(c1)C1=NCCN1C2(O)c1ccc(Cl)cc1 (stereo unspecified)	29.6 µM	26.4 µM	32 µM	–	28.2 µM	> 100 µM	31 µM	27.7 µM	62 µM	15.5 µM	31.9 µM	–	–	–	–	–	27.6 µM	–	–	–
Cc1cc2c(C(C)C)c(O)c(O)c(C=NCCO)c2c(O)c1-c1c(C)cc2c(C(C)C)c(O)c(O)c(C=NCCO)c2c1O	12.4 µM	–	–	9.36 µM	–	2.46 µM	3.66 µM	3.23 µM	3.78 µM	18.4 µM	4.98 µM	–	–	–	–	–	9.51 µM	–	–	–
CC(=O)O[C@H]1C=CC(=O)C(C)CC1C (stereo partly specified)	> 100 µM	–	–	> 100 µM	–	> 100 µM	> 100 µM	> 100 µM	> 100 µM	> 100 µM	> 100 µM	–	–	–	–	–	> 100 µM	–	–	–
Clc1ccc(CNc2nc(Cl)c3[nH]cnc3n2)cc1Cl	> 100 µM	84.5 µM	50.8 µM	> 100 µM	> 100 µM	> 100 µM	–	37.4 µM	77.6 µM	84.7 µM	48.9 µM	–	–	–	–	–	> 100 µM	–	–	–
CCOc1ccc(/C(C=O)=C(\Cl)c2ccc(OC)c(OC)c2)cc1	> 100 µM	–	–	> 100 µM	–	–	> 100 µM	> 100 µM	–	> 100 µM	–	–	–	–	–	–	–	–	–	–
Cc1ccc(C2N=C(N)NC3=C2CCOc2c3ccc3ccccc23)cc1 (stereo unspecified)	> 73.7 µM	> 79.8 µM	67.7 µM	> 40.6 µM	32.7 µM	> 74.8 µM	> 100 µM	30.9 µM	> 100 µM	> 80.3 µM	> 65.7 µM	–	–	–	–	–	97.9 µM	–	16.6 µM	4.7 µM
N=C(N)SCc1cc(Cl)cc(Cl)c1O	36.4 µM	36.6 µM	72 µM	72.7 µM	30.5 µM	50.8 µM	46.4 µM	31.9 µM	–	35.4 µM	31.6 µM	–	–	–	–	–	46.8 µM	–	–	–
O=C(COc1ccc(OCC(=O)NNC2=NC(c3cc(F)c(Cl)cc3Cl)CS2)c(Cl)c1)NNC1=NC(c2cc(F)c(Cl)cc2Cl)CS1 (stereo unspecified)	> 100 µM	66.1 µM	48.7 µM	> 100 µM	54.5 µM	> 100 µM	86.9 µM	–	> 100 µM	> 100 µM	> 100 µM	–	–	–	–	–	60.9 µM	–	–	–
CC(=O)C=NCC(=O)O	> 100 µM	> 100 µM	> 100 µM	> 100 µM	> 100 µM	> 100 µM	> 100 µM	> 100 µM	> 100 µM	> 100 µM	> 100 µM	–	–	–	–	–	> 100 µM	–	–	–
CCCC(N)C(=O)c1ccccc1 (stereo unspecified)	> 100 µM	–	–	> 100 µM	–	–	> 100 µM	> 100 µM	> 100 µM	> 100 µM	> 100 µM	–	–	–	–	–	> 100 µM	–	–	–
c1ccc(-c2nnc(SCc3c[nH]c4ccccc34)n2-c2ccccc2)cc1	> 100 µM	98.7 µM	93.5 µM	> 100 µM	> 100 µM	> 100 µM	> 100 µM	61 µM	> 100 µM	64.1 µM	> 100 µM	–	–	–	–	–	52.5 µM	–	–	–
COc1c2c(cc3c1OCO3)C13C=CC(OC)CC1N(CC3)C2 (stereo unspecified)	> 100 µM	> 100 µM	> 100 µM	> 100 µM	> 100 µM	> 100 µM	> 100 µM	> 100 µM	22.2 µM	> 100 µM	> 100 µM	–	–	–	–	–	> 100 µM	–	–	–
O=C(Nc1ccc(Sc2ccc(N=Nc3c(O)c(S(=O)(=O)O)cc4cc(S(=O)(=O)O)ccc34)cc2)cc1)c1ccc(N=Nc2c(O)ccc3c(S(=O)(=O)O)cc(S(=O)(=O)O)cc23)cc1	> 100 µM	–	–	72 µM	–	52.1 µM	> 100 µM	43.3 µM	85.2 µM	> 100 µM	> 100 µM	–	–	–	–	–	> 100 µM	–	–	–
Cc1cc(C)nc(SCC(=O)OC2CC(C)CCC2C(C)C)n1 (stereo unspecified)	38.6 µM	79.9 µM	> 100 µM	41.1 µM	49.7 µM	38.6 µM	> 100 µM	29 µM	–	89.9 µM	41.7 µM	–	–	–	–	–	32 µM	–	–	–
N#CC(Nc1cccc(C(F)(F)F)c1)c1ccccc1C(F)(F)F (stereo unspecified)	27.6 µM	–	–	18 µM	–	40.5 µM	31.8 µM	32.1 µM	25.9 µM	27.9 µM	27.7 µM	–	–	–	–	–	24.8 µM	–	–	–
